Results: patent US10202389B2, “Pyrazolopyrimidinyl inhibitors of ubiquitin-activating enzyme” (Millennium Pharmaceuticals, Inc., priority 2012, dated 2019)

Target: recombinant human UAE (Homo sapiens (Human), UniProt P22314)
Experiment: Ubiquitin Activating Enzyme (UAE) HTRF Assay
Settings: read-out: % inhibition @0.111 μM
Method: After incubation for 120 minutes, quantification of the FRET is performed on the Pherostar (BMG).
For compounds whose values are marked with an asterisk (*), mouse UAE was used. For all other compounds, human UAE was used.

Chain of recombinant human UAE (P22314 whole entry): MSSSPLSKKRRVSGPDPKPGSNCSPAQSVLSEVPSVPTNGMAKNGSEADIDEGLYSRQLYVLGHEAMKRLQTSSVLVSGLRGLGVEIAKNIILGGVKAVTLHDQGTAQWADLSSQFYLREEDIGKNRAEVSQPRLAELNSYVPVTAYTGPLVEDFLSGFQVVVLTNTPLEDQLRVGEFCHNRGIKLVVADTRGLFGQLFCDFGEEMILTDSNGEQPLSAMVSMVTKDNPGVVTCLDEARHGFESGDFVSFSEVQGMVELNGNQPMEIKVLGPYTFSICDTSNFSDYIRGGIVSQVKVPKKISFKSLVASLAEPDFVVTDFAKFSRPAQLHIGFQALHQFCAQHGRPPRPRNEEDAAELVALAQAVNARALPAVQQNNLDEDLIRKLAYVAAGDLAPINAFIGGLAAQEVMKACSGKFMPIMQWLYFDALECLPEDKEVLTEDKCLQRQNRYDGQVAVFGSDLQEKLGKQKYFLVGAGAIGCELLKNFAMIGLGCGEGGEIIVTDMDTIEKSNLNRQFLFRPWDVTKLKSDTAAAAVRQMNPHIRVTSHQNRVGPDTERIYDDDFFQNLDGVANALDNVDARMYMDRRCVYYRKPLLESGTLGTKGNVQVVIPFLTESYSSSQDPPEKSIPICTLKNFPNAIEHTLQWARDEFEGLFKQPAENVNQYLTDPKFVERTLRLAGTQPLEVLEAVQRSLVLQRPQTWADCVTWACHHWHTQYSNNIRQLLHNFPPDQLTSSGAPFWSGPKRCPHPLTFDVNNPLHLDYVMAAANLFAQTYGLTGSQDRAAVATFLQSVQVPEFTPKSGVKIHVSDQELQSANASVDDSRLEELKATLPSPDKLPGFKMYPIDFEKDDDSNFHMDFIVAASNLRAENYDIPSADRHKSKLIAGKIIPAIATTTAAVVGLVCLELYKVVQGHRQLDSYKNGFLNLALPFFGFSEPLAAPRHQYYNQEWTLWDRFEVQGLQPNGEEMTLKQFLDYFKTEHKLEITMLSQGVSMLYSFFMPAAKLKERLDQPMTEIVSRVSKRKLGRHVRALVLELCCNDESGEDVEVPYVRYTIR

inhibition at 0.111 µM | Structure (SMILES)
100% | Cc1ccc(-c2cc3nccc(N[C@@H]4C[C@H](COS(N)(=O)=O)[C@@H](O)[C@H]4O)n3n2)c2ccccc12 [Compound I-115, (s.e.)-((1R,2R,3S,4R)-2,3-dihydroxy-4-(2-(4-methylnaphthalen-1-yl)pyrazolo[1,5-a]pyrimidin-7-ylamino)cyclopentyl)methyl sulfamate]
100% | NS(=O)(=O)OC[C@H]1C[C@@H](Nc2ccnc3cc(-c4cnc(-c5ccccc5)o4)nn23)[C@H](O)[C@@H]1O (relative stereo) [Compound I-067, (rac)-[(1R,2R,3S,4R)-2,3-dihydroxy-4-{[2-(2-phenyl-1,3-oxazol-5-yl)pyrazolo[1,5-a]pyrimidin-7-yl]amino}cyclopentyl]methyl rel-sulfamate]
100% | NS(=O)(=O)OC[C@H]1C[C@@H](Nc2ccnc3cc(-c4coc5ccccc45)nn23)[C@H](O)[C@@H]1O (relative stereo) [Compound I-049, (rac)-((1R,2R,3S,4R)-4-(2-(benzofuran-3-yl)pyrazolo[1,5-a]pyrimidin-7-ylamino)-2,3-dihydroxycyclopentyl)methyl rel-sulfamate]
99% | Cc1ccc2ccccc2c1-c1cc2nccc(N[C@@H]3C[C@H](COS(N)(=O)=O)[C@@H](O)[C@H]3O)n2n1 [Compound I-114, (s.e.)-((1R,2R,3S,4R)-2,3-dihydroxy-4-(2-(2-methylnaphthalen-1-yl)pyrazolo[1,5-a]pyrimidin-7-ylamino)cyclopentyl)methyl sulfamate]
99% | NS(=O)(=O)OC[C@H]1C[C@@H](Nc2ccnc3cc(-c4cccc(Br)c4)nn23)[C@H](O)[C@@H]1O (relative stereo) [Compound I-028, (rac)-((1R,2R,3S,4R)-4-((2-(3-Bromophenyl)pyrazolo[1,5-a]pyrimidin-7-yl)amino)-2,3-dihydroxycyclopentyl)methyl rel-sulfamate]
84% | NS(=O)(=O)OC[C@H]1C[C@@H](Nc2ccnc3cc(-c4ccc(Cl)cc4Cl)nn23)[C@H](O)[C@@H]1O (relative stereo) [Compound I-013, (rac)-[(1R,2R,3S,4R)-4-{[2-(2,4-dichlorophenyl)pyrazolo[1,5-a]pyrimidin-7-yl]amino}-2,3-dihydroxycyclopentyl]methyl rel-sulfamate]
100% | COc1ccc2ccccc2c1-c1cc2nccc(N[C@@H]3C[C@H](COS(N)(=O)=O)[C@@H](O)[C@H]3O)n2n1 [Compound I-104, (s.e.)-((1R,2R,3S,4R)-2,3-dihydroxy-4-(2-(2-methoxynaphthalen-1-yl)pyrazolo[1,5-a]pyrimidin-7-ylamino)cyclopentyl)methyl sulfamate]
100% | NS(=O)(=O)OC[C@H]1C[C@@H](Nc2ccnc3cc(-c4csc5ccc(Cl)cc45)nn23)[C@H](O)[C@@H]1O (relative stereo) [Compound I-071, (rac)-((1R,2R,3S,4R)-4-(2-(5-chlorobenzo[b]thiophen-3-yl)pyrazolo[1,5-a]pyrimidin-7-ylamino)-2,3-dihydroxycyclopentyl)methyl rel-sulfamate]
100% | NS(=O)(=O)OC[C@H]1C[C@@H](Nc2ccnc3cc(-c4ccc(Cl)c5ccccc45)nn23)[C@H](O)[C@@H]1O [Compound I-108, (s.e.)-[(1R,2R,3S,4R)-4-{[2-(4-chloro-1-naphthyl)pyrazolo[1,5-a]pyrimidin-7-yl]amino}-2,3-dihydroxycyclopentyl]methyl sulfamate]
100% | NS(=O)(=O)OC[C@H]1C[C@@H](Nc2ccnc3cc(-c4c[nH]c5ccccc45)nn23)[C@H](O)[C@@H]1O (relative stereo) [Compound I-032, (rac)-[(1R,2R,3S,4R)-2,3-dihydroxy-4-{[2-(1H-indol-3-yl)pyrazolo[1,5-a]pyrimidin-7-yl]amino}cyclopentyl]methyl rel-sulfamate]
100% | NS(=O)(=O)OC[C@H]1C[C@@H](Nc2ccnc3cc(-c4cncc(-c5ccccc5)n4)nn23)[C@H](O)[C@@H]1O (relative stereo) [Compound I-121, (rac)-((1R,2R,3S,4R)-2,3-dihydroxy-4-{[2-(6-phenylpyrazin-2-yl)pyrazolo[1,5-a]pyrimidin-7-yl]aminolcyclopentyl)methylrel-sulfamate]
100% | NS(=O)(=O)OC[C@H]1C[C@@H](Nc2ccnc3cc(-c4cccc5cnccc45)nn23)[C@H](O)[C@@H]1O (relative stereo) [Compound I-027, (rac)-((1R,2R,3S,4R)-2,3-dihydroxy-4-(2-(isoquinolin-5-yl)pyrazolo[1,5-a]pyrimidin-7-ylamino)cyclopentyl)methyl rel-sulfamate]
100% | NS(=O)(=O)OC[C@H]1C[C@@H](Nc2ccnc3cc(-c4ccc5cccnc5c4)nn23)[C@H](O)[C@@H]1O (relative stereo) [Compound I-043, (rac)-((1R,2R,3S,4R)-2,3-dihydroxy-4-(2-(quinolin-7-yl)pyrazolo[1,5-a]pyrimidin-7-ylamino)cyclopentyl)methyl rel-sulfamate]

More lines, now with the values behind:

Structure (SMILES) | inhibition at 0.111 µM
NS(=O)(=O)OC[C@H]1C[C@@H](Nc2ccnc3cc(-c4cccc(N5CCOCC5)c4)nn23)[C@H](O)[C@@H]1O (relative stereo) [Compound I-078, (rac)-((1R,2R,3S,4R)-2,3-dihydroxy-4-(2-(3-morpholinophenyl)pyrazolo[1,5-a]pyrimidin-7-ylamino)cyclopentyl)methyl rel-sulfamate] | 100%
CCOC(C)(C)c1cccc(-c2cc3nccc(N[C@@H]4C[C@H](COS(N)(=O)=O)[C@@H](O)[C@H]4O)n3n2)c1 (relative stereo) [Compound I-084, (rac)-((1R,2R,3S,4R)-4-(2-(3-(2-ethoxypropan-2-yl)phenyl)pyrazolo[1,5-a]pyrimidin-7-ylamino)-2,3-dihydroxycyclopentyl)methyl rel-sulfamate] | 100%
Cc1cc(N[C@@H]2C[C@H](COS(N)(=O)=O)[C@@H](O)[C@H]2O)n2nc(-c3ccccc3)cc2n1 (relative stereo) [Compound I-004, (rac)-{(1R,2R,3S,4R)-2,3-dihydroxy-4-[(5-methyl-2-phenylpyrazolo[1,5-a]pyrimidin-7-yl)amino]cyclopentyl}methyl rel-sulfamate] | 31%
NS(=O)(=O)OC[C@H]1C[C@@H](Nc2ccnc3cc(-c4cc5ccc(Cl)cc5s4)nn23)[C@H](O)[C@@H]1O (relative stereo) [Compound I-088, (rac)-((1R,2R,3S,4R)-4-(2-(6-chlorobenzo[b]thiophen-2-yl)pyrazolo[1,5-a]pyrimidin-7-ylamino)-2,3-dihydroxycyclopentyl)methyl rel-sulfamate] | 97%
NS(=O)(=O)OC[C@H]1C[C@@H](Nc2ccnc3cc(-c4cccc(C(F)(F)F)c4)nn23)[C@H](O)[C@@H]1O (relative stereo) [Compound I-007, (rac)-((1R,2R,3S,4R)-2,3-Dihydroxy-4-((2-(3-(trifluoromethyl)phenyl)pyrazolo[1,5-a]pyrimidin-7-yl)amino)cyclopentyl)methyl rel-sulfamate] | 99%
CC1(C)CCc2ccc(-c3cc4nccc(N[C@@H]5C[C@H](COS(N)(=O)=O)[C@@H](O)[C@H]5O)n4n3)cc21 (relative stereo) [Compound I-041, (rac)-((1R,2R,3S,4R)-4-(2-(3,3-dimethyl-2,3-dihydro-1H-inden-5-yl)pyrazolo[1,5-a]pyrimidin-7-ylamino)-2,3-dihydroxycyclopentyl)methyl rel-sulfamate] | 99%
NS(=O)(=O)OC[C@H]1C[C@@H](Nc2c(Cl)cnc3c(Cl)c(-c4cccc(SC(F)(F)F)c4)nn23)[C@H](O)[C@@H]1O [Compound I-124, (s.e.)-{(1R,2R,3S,4R)-4-[(3,6-dichloro-2-{3-[(trifluoromethyl)sulfanyl]phenyl}pyrazolo[1,5-a]pyrimidin-7-yl)amino]-2,3-dihydroxycyclopentyl}methyl sulfamate] | 20%
NS(=O)(=O)OC[C@H]1C[C@@H](Nc2c(Cl)cnc3cc(-c4cccc(SC(F)(F)F)c4)nn23)[C@H](O)[C@@H]1O [Compound I-125, (s.e.)-{(1R,2R,3S,4R)-4-[(6-chloro-2-{3-[(trifluoromethyl)sulfanyl]phenyl}pyrazolo[1,5-a]pyrimidin-7-yl)amino]-2,3-dihydroxycyclopentyl}methyl sulfamate] | 50%
NS(=O)(=O)OC[C@H]1C[C@@H](Nc2ccnc3cc(-c4cccc5cc(C(F)F)ccc45)nn23)[C@H](O)[C@@H]1O [Compound I-111, (s.e.)-((1R,2R,3S,4R)-4-(2-(6-(difluoromethyl)naphthalen-1-yl)pyrazolo[1,5-a]pyrimidin-7-ylamino)-2,3-dihydroxycyclopentyl)methyl sulfamate] | 100%
COc1ccc(OC(F)(F)F)cc1-c1cc2nccc(N[C@@H]3C[C@H](COS(N)(=O)=O)[C@@H](O)[C@H]3O)n2n1 [Compound I-102, (s.e)-[(1R,2R,3S,4R)-2,3-dihydroxy-4-({2-[2-methoxy-5-(trifluoromethoxy)-phenyl]pyrazolo[1,5-a]pyrimidin-7-yl}amino)cyclopentyl]methyl sulfamate] | 100%
CC(C)(C)c1cccc(-c2cc3nccc(N[C@@H]4C[C@H](COS(N)(=O)=O)[C@@H](O)[C@H]4O)n3n2)c1 (relative stereo) [Compound I-015, (rac)-((1R,2R,3S,4R)-4-((2-(3-(tert-Butyl)phenyl)pyrazolo[1,5-a]pyrimidin-7-yl)amino)-2,3-dihydroxycyclopentyl)methyl rel-sulfamate] | 100%
NS(=O)(=O)OC[C@H]1C[C@@H](Nc2cc(Cl)nc3cc(-c4ccc(Br)cc4)nn23)[C@H](O)[C@@H]1O (relative stereo) [Compound I-008, (rac)-((1R,2R,3S,4R)-4-(2-(4-bromophenyl)-5-chloropyrazolo[1,5-a]pyrimidin-7-ylamino)-2,3-dihydroxycyclopentyl)methyl rel-sulfamate] | 28%
